Data published in ChEMBL document CHEMBL4627310, “Design, synthesis and biological evaluation of 3-nitro-1,8-naphthalimides as potential antitumor agents” (Bioorg Med Chem Lett, 2020).
pIC50: −log10 of the molar value.

What was measured:
[1] = system: T-24; test: Antiproliferative activity against human T24 cells assessed as cell growth inhibition measured after 48 hrs by MTT assay; assay type: functional, cell-based; settings: T-24, 48 h
[2] = system: HepG2; test: Anticancer activity against human HepG2 cells xenografted in mouse assessed as tumor inhibition rate at 5 mg/kg measured at day 14 relative to control; assay type: functional; settings: HepG2, 336 h
[3] = system: L02; test: Cytotoxicity against human HL7702 cells assessed as cell growth inhibition measured after 48 hrs by MTT assay; assay type: cell-based; settings: L02, 48 h
[4] = system: T-24; test: Anticancer activity against human T24 cells xenografted in mouse assessed as tumor growth inhibition by measuring T/C ratio at 5 mg/kg measured at day 14 relative to control; assay type: functional
[5] = system: SK-OV-3; test: Antiproliferative activity against human SKOV3 cells assessed as cell growth inhibition measured after 48 hrs by MTT assay; assay type: functional, cell-based; settings: SK-OV-3, 48 h
[6] = system: T-24; test: Anticancer activity against human T24 cells xenografted in mouse assessed as tumor inhibition rate at 5 mg/kg measured at day 14 relative to control; assay type: functional; settings: T-24, 336 h
[7] = system: SMMC-7721; test: Antiproliferative activity against human SMMC7721 cells assessed as cell growth inhibition measured after 48 hrs by MTT assay; assay type: functional, cell-based; settings: SMMC-7721, 48 h
[8] = system: HepG2; test: Anticancer activity against human HepG2 cells xenografted in mouse assessed as tumor growth inhibition by measuring T/C ratio at 5 mg/kg measured at day 14 relative to control; assay type: functional
[9] = system: A549; test: Antiproliferative activity against human A549 cells assessed as cell growth inhibition measured after 48 hrs by MTT assay; assay type: functional, cell-based; settings: A549, 48 h
[10] = system: HepG2; test: Antiproliferative activity against human HepG2 cells assessed as cell growth inhibition measured after 48 hrs by MTT assay; assay type: functional, cell-based; settings: HepG2, 48 h

pIC50 [5] | pIC50 [7] | pIC50 [9] | pIC50 [10] | Compound | pIC50 [1] | inhibition in vivo at 5 mg/kg [2] | pIC50 [3] | T/C [4] | inhibition in vivo at 5 mg/kg [6] | T/C [8]
4.38 | 4.26 | 4.35 | 4.62 | O=C1c2cccc3cc([N+](=O)[O-])cc(c23)C(=O)N1c1ccc2[nH]c(=O)[nH]c2c1 | 4.24 |  | < 4.00 |  |  | 
4.21 | < 4.00 | 4.49 | 4.41 | O=C1c2cccc3cc([N+](=O)[O-])cc(c23)C(=O)N1Nc1ccccc1 | 4.82 |  | 4.23 |  |  | 
4.22 | 4.27 | 4.43 | 4.30 | O=C1c2cccc3cc([N+](=O)[O-])cc(c23)C(=O)N1c1nc2ccccc2[nH]1 | 4.26 |  | < 4.00 |  |  | 

Compound | pIC50 [5] | pIC50 [7] | pIC50 [9] | pIC50 [10] | pIC50 [1] | inhibition in vivo at 5 mg/kg [2] | pIC50 [3] | T/C [4] | inhibition in vivo at 5 mg/kg [6] | T/C [8]
CN(C)CCN1C(=O)c2cccc3cc([N+](=O)[O-])cc(c23)C1=O [MITONAFIDE] | 5.20 | 5.16 | 5.10 | 4.96 | 5.30 | 68.3% | 5.07 | 29% | 67% | 28.8%
